Test results from patent US20250171461A1, “STIMULATOR OF INTERFERON GENES (STING) MODULATORS, AND COMPOSITIONS AND METHODS THEREOF” (Geode Therapeutics Inc., priority 2022, published 2025).

Molecular target: T1, human HAQ STING isoform (hSTING HAQ) (Homo sapiens, UniProt Q86WV6, G230A/H232R/R293Q/R71H)
T1 construct: THP1 cells express the naturally occurring human HAQ STING isoform (hSTING HAQ); host or cells: THP1
Assay: IFN-β mRNA level in THP1 cells (qPCR, STING agonist cellular activity)
Assay type: cell-based
Conditions: compound at 3.6 μM, 2 hrs, IFNβ expression normalized against GAPDH by the 2^-ΔΔCT method, DMSO = 1.0
Experimental: Cellular activity of STING agonists was determined by mRNA levels of IFN-β in THP1 (Otwo Biotech HTX1621) cell line. THP1 cells express the naturally occurring human HAQ STING isoform (hSTING HAQ), which responses to the activation of STING agonists.
THP1 cells were seeded into Falcon 12-well cell Culture Plate (Corning #353043) at 9×10^5 cells per well, in 1 ml complete culture medium (RPMI-1640, GIBCO #C1187500BT) containing 10% heat inactivated FBS (GIBCO #10099141C), 1% Pen-Strep (HyClone SV30010) and incubated at 37° ΔC, 5% CO2 overnight. On day 2, compound (final concentration at 3.6 μM) or DMSO (0.1%, Sigma Aldrich #8418) was added to THP1 cells and further incubated for 2 hrs min at 37° ΔC, 5% CO2. Cells were then collected for RNA extraction.
Total RNA was extracted with TRIzol reagent (Invitrogen #15596026) and […] was used to synthesize first-strand cDNA with Maxima First Strand cDNA Synthesis Kit (TAKARA #RR036A). Quantitative PCR was performed with Maxima SYBR Green qPCR Master Mix (ABI #4367659, USA). The primer sequences used were as follows: GAPDH (5′-[…]-3′, 5′-[…]-3′). INFP3 (5′-[…]-3′,5′-[…]-3′) Real-time PCR was performed on QuantStudio™ 5 Real-Time PCR System (Thermo Fisher). Relative expression levels of IFNβ gene were normalized against the level of GAPDH expression by the 2^−ΔΔCT method. Each PCR reaction was performed in triplicates.

T1 sequence (Q86WV6 whole entry R71H/G230A/H232R/R293Q, canonical isoform): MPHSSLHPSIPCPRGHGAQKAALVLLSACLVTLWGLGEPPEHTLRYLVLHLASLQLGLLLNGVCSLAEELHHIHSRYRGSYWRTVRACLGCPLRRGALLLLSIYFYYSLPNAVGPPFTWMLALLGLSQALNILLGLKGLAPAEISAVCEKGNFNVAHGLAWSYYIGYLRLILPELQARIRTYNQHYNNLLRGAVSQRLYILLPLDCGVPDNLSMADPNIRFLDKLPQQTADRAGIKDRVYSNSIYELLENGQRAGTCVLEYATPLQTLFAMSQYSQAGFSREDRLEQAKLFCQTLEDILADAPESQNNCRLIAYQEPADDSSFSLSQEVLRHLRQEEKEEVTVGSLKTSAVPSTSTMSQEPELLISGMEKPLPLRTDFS

Structure (SMILES) | Relative mRNA INFβ/GAPDH THP 1
Cc1cc(CN(Cc2cn3c4c(c(F)c(F)cc4c2=O)OCC3C)[C@H]2CCCN(c3ccc(C#N)nc3)C2)ccn1 (stereo partly drawn) [Compound 12, 5-((3S)-3-(((9,10-difluoro-3-methyl-7-oxo-3,7-dihydro-2H-[1,4]oxazino[2,3,4-ij]quinolin-6-yl)methyl)((2-methylpyridin-4-yl)methyl)amino)piperidin-1-yl)picolinonitrile] | 14.1
Cc1cc(CN(Cc2cn3c4c(c(F)c(F)cc4c2=O)OCC3C)[C@H]2CCCN(c3ccc(C(N)=O)nc3)C2)ccn1 (stereo partly drawn) [Compound 13, 5-((3S)-3-(((9,10-difluoro-3-methyl-7-oxo-3,7-dihydro-2H-[1,4]oxazino[2,3,4-ij]quinolin-6-yl)methyl)((2-methylpyridin-4-yl)methyl)amino)piperidin-1-yl)picolinamide] | 3.6
Cc1cc(CN(Cc2cn3c4c(c(F)c(F)cc4c2=O)OCC3C)[C@H]2CCCN(c3cnccn3)C2)ccn1 (stereo partly drawn) [Compound 14, 9,10-difluoro-3-methyl-6-((((2-methylpyridin-4-yl)methyl)((S)-1-(pyrazin-2-yl)piperidin-3-yl)amino)methyl)-2H-[1,4]oxazino[2,3,4-ij]quinolin-7(3H)-one] | 3848.9
COc1cc(CN(Cc2cn3c4c(c(F)c(F)cc4c2=O)OCC3C)[C@H]2CCN(c3ccc(N)nc3)C2)ccn1 (stereo partly drawn) [Compound 15, 6-((((S)-1-(6-aminopyridin-3-yl)pyrrolidin-3-yl)((2-methoxypyridin-4-yl)methyl)amino)methyl)-9,10-difluoro-3-methyl-2H-[1,4]oxazino[2,3,4-ij]quinolin-7(3H)-one] | 5.8
CNc1ccc(N2CCC[C@H](N(Cc3ccnc(OC)c3)Cc3cn4c5c(c(F)c(F)cc5c3=O)OCC4C)C2)cn1 (stereo partly drawn) [Compound 16, 9,10-difluoro-6-((((2-methoxypyridin-4-yl)methyl)((S)-1-(6-(methylamino)pyridin-3-yl)piperidin-3-yl)amino)methyl)-3-methyl-2H-[1,4]oxazino[2,3,4-ij]quinolin-7(3H)-one] | 114.6
COc1cc(CN(Cc2cn3c4c(c(N5CC6(CCNCC6)C5)c(F)cc4c2=O)OCC3C)[C@H]2CCCN(c3ccc(N)nc3)C2)ccn1 (stereo partly drawn) [Compound 24, 6-((((S)-1-(6-aminopyridin-3-yl)piperidin-3-yl)((2-methoxypyridin-4-yl)methyl)amino)methyl)-9-fluoro-3-methyl-10-(2,7-diazaspiro[3.5]nonan-2-yl)-2H-[1,4]oxazino[2,3,4-ij]quinolin-7(3H)-one] | 437.3
COc1cc(CN(Cc2cn3c4c(c(N5CCN(Cc6oc(=O)oc6C)CC5)c(F)cc4c2=O)OCC3C)[C@H]2CCCN(c3ccc(N)nc3)C2)ccn1 (stereo partly drawn) [Compound 25, 6-((((S)-1-(6-aminopyridin-3-yl)piperidin-3-yl)((2-methoxypyridin-4-yl)methyl)amino)methyl)-9-fluoro-3-methyl-10-(4-((5-methyl-2-oxo-1,3-dioxol-4-yl)methyl)piperazin-1-yl)-2H-[1,4]oxazino[2,3,4-ij]quinolin-7(3H)-one] | 604.8

Results, then the compound that gave them:

Relative mRNA INFβ/GAPDH THP 1 | Structure (SMILES)
6.7 | COc1cc(CN(Cc2cn3c4c(c(F)c(F)cc4c2=O)OCC3C)[C@H]2CCCN(c3ccc(N4CCCC4)nc3)C2)ccn1 (stereo partly drawn) [Compound 17, 9,10-difluoro-6-((((2-methoxypyridin-4-yl)methyl)((S)-1-(6-(pyrrolidin-1-yl)pyridin-3-yl)piperidin-3-yl)amino)methyl)-3-methyl-2H-[1,4]oxazino[2,3,4-ij]quinolin-7(3H)-one]
4.8 | COc1cc(CN(Cc2cn3c4c(c(F)c(F)cc4c2=O)OCC3C)[C@H]2CCCN(c3ccc(N4CCCC4=O)nc3)C2)ccn1 (stereo partly drawn) [Compound 18, 9,10-difluoro-6-((((2-methoxypyridin-4-yl)methyl)((S)-1-(6-(2-oxopyrrolidin-1-yl)pyridin-3-yl)piperidin-3-yl)amino)methyl)-3-methyl-2H-[1,4]oxazino[2,3,4-ij]quinolin-7(3H)-one]
2625.9 | COc1cc(CN(Cc2cn3c4c(c(F)c(F)cc4c2=O)OCC3C)[C@H]2CCCN(c3ccc(N(C)C)nc3)C2)ccn1 (stereo partly drawn) [Compound 19, 11-[[[(3S)-1-[6-(dimethylamino)-3-pyridyl]-3-piperidyl]-[(2-methoxy-4-pyridyl)methyl]amino]methyl]-6,7-difluoro-2-methyl-4-oxa-1-azatricyclo[7.3.1.05,13]trideca-5(13),6,8,11-tetraen-10-one]
2142.1 | COc1cc(CN(Cc2cn3c4c(c(F)c(F)cc4c2=O)OCC3C)[C@H]2CCCN(c3ccc(NCC4CC4)nc3)C2)ccn1 (stereo partly drawn) [Compound 20, 11-[[[(3S)-1-[6-(cyclopropylmethylamino)-3-pyridyl]-3-piperidyl]-[(2-methoxy-4-pyridyl)methyl]amino]methyl]-6,7-difluoro-2-methyl-4-oxa-1-azatricyclo[7.3.1.0^5,13]trideca-5(13),6,8,11-tetraen-10-one]
114.6 | COc1cc(CN(Cc2cn3c4c(c(F)c(F)cc4c2=O)OCC3C)[C@H]2CCCN(c3ccc(N(C)C4CC4)nc3)C2)ccn1 (stereo partly drawn) [Compound 21, 11-[[[(3S)-1-[6-[cyclopropyl(methyl)amino]-3-pyridyl]-3-piperidyl]-[(2-methoxy-4-pyridyl)methyl]amino]methyl]-6,7-difluoro-2-methyl-4-oxa-1-azatricyclo[7.3.1.0^5,13]trideca-5(13),6,8,11-tetraen-10-one]
6463.9 | COc1cc(CN(Cc2cn3c4c(c(F)c(F)cc4c2=O)OCC3C)[C@H]2CCCN(c3cccnc3)C2)ccn1 (stereo partly drawn) [Compound 22, 9,10-difluoro-6-((((2-methoxypyridin-4-yl)methyl)((S)-1-(pyridin-3-yl)piperidin-3-yl)amino)methyl)-3-methyl-2H-[1,4]oxazino[2,3,4-ij]quinolin-7(3H)-one]
3.5 | COc1cc(CN(Cc2cn3c4c(c(N5CCN(CNC(N)=O)CC5)c(F)cc4c2=O)OCC3C)[C@H]2CCCN(c3ccc(N)nc3)C2)ccn1 (stereo partly drawn) [Compound 26, 1-((4-(6-((((S)-1-(6-aminopyridin-3-yl)piperidin-3-yl)((2-methoxypyridin-4-yl)methyl)amino)methyl)-9-fluoro-3-methyl-7-oxo-3,7-dihydro-2H-[1,4]oxazino[2,3,4-ij]quinolin-10-yl)piperazin-1-yl)methyl)urea]
372.4 | COc1cc(CN(Cc2cn3c4c(c(N5CCOCC5)c(F)cc4c2=O)OCC3C)[C@H]2CCCN(c3ccc(N)nc3)C2)ccn1 (stereo partly drawn) [Compound 27, 6-((((S)-1-(6-aminopyridin-3-yl)piperidin-3-yl)((2-methoxypyridin-4-yl)methyl)amino)methyl)-9-fluoro-3-methyl-10-morpholino-2H-[1,4]oxazino[2,3,4-ij]quinolin-7(3H)-one]
1530.0 | COc1cc(CN(Cc2cn3c4c(c(N5CCCCC5)c(F)cc4c2=O)OCC3C)[C@H]2CCCN(c3ccc(N)nc3)C2)ccn1 (stereo partly drawn) [Compound 28, 6-((((S)-1-(6-aminopyridin-3-yl)piperidin-3-yl)((2-methoxypyridin-4-yl)methyl)amino)methyl)-9-fluoro-3-methyl-10-(piperidin-1-yl)-2H-[1,4]oxazino[2,3,4-ij]quinolin-7(3H)-one]
